From US12522583B2, “Benzimidazole derivatives and aza-benzimidazole derivatives as Janus kinase 2 inhibitors and uses thereof” (Dana-Farber Cancer Institute, Inc., priority 2018, dated 2026)

Columns and labels:
Experiment in all cases: KINOMEscan
Type in all cases: binding
Details in all cases: read-out: percent control
[1] = target: ABL1(F317I)-nonphosphorylated (Homo sapiens (Human), UniProt P00519, F317I)
From the text: (§1) Example 2. In Vitro Kinase Selectivity Profiling of the Compounds of the Present Disclosure

[2] = target: ABL1(H396P)-phosphorylated (Homo sapiens (Human), UniProt P00519, H396P)
From the text: as §1

[3] = target: ABL1(Q252H)-phosphorylated (Homo sapiens (Human), UniProt P00519, Q252H)
From the text: as §1

ABL2 = ABL2 (Homo sapiens (Human), UniProt P42684)
From the text: as §1

AKT2 = AKT2 (Homo sapiens (Human), UniProt P31751)
From the text: as §1

BMPR1A = BMPR1A (Homo sapiens (Human), UniProt P36894)
From the text: as §1

CAMK1D = CAMK1D (Homo sapiens (Human), UniProt Q8IU85)
From the text: as §1

CAMK1G = CAMK1G (Homo sapiens (Human), UniProt Q96NX5)
From the text: as §1

CDK9 = CDK9 (Homo sapiens (Human), UniProt P50750)
From the text: as §1

CLK2 = CLK2 (Homo sapiens (Human), UniProt P49760)
From the text: as §1

CSNK1E = CSNK1E (Homo sapiens (Human), UniProt P49674)
From the text: as §1

DAPK2 = DAPK2 (Homo sapiens (Human), UniProt Q9UIK4)
From the text: as §1

DCAMKL2 = DCAMKL2 (Homo sapiens (Human), UniProt Q8N568)
From the text: as §1

EIF2AK1 = EIF2AK1 (Homo sapiens (Human), UniProt Q9BQI3)
From the text: as §1

EPHA7 = EPHA7 (Homo sapiens (Human), UniProt Q15375)
From the text: as §1

FGFR2 = FGFR2 (Homo sapiens (Human), UniProt P21802)
From the text: as §1

FGFR3(G697C) = FGFR3(G697C) (Homo sapiens (Human), UniProt P22607, G697C)
From the text: as §1

FGFR4 = FGFR4 (Homo sapiens (Human), UniProt P22455)
From the text: as §1

FRK = FRK (Homo sapiens (Human), UniProt P42685)
From the text: as §1

[4] = target: JAK3(JH1domain-catalytic) (Homo sapiens (Human), UniProt P52333)
From the text: as §1

KIT(V559D) = KIT(V559D) (Homo sapiens (Human), UniProt P10721, V559D)
From the text: as §1

LZK = LZK (Homo sapiens (Human), UniProt O43283)
From the text: as §1

MELK = MELK (Homo sapiens (Human), UniProt Q14680)
From the text: as §1

NIK = NIK (Homo sapiens (Human), UniProt Q99558)
From the text: as §1

PIK3CA(E545A) = PIK3CA(E545A) (Homo sapiens (Human), UniProt P42336, E545A)
From the text: as §1

PIK3CA(I800L) = PIK3CA(I800L) (Homo sapiens (Human), UniProt P42336, I800L)
From the text: as §1

PIP5K1C = PIP5K1C (Homo sapiens (Human), UniProt O60331)
From the text: as §1

PKAC-alpha = PKAC-alpha (Homo sapiens (Human), UniProt P17612)
From the text: as §1

RIPK5 = RIPK5 (Homo sapiens (Human), UniProt Q6XUX3)
From the text: as §1

[5] = target: RSK1(Kin.Dom.2-C-terminal) (Homo sapiens (Human), UniProt Q15418)
From the text: as §1

[6] = target: RSK2(Kin.Dom.2-C-terminal) (Homo sapiens (Human), UniProt P51812)
From the text: as §1

SGK = SGK (Homo sapiens (Human), UniProt O00141)
From the text: as §1

SRPK1 = SRPK1 (Homo sapiens (Human), UniProt Q96SB4)
From the text: as §1

STK35 = STK35 (Homo sapiens (Human), UniProt Q8TDR2)
From the text: as §1

TNK2 = TNK2 (Homo sapiens (Human), UniProt Q07912)
From the text: as §1

TSSK1B = TSSK1B (Homo sapiens (Human), UniProt Q9BXA7)
From the text: as §1

[7] = target: TYK2(JH1domain-catalytic) (Homo sapiens (Human), UniProt P29597)
From the text: as §1

ULK2 = ULK2 (Homo sapiens (Human), UniProt Q8IYT8)
From the text: as §1

p38-delta = p38-delta (Homo sapiens (Human), UniProt O15264)
From the text: as §1

Chain of DAPK2 (Q9UIK4 whole entry): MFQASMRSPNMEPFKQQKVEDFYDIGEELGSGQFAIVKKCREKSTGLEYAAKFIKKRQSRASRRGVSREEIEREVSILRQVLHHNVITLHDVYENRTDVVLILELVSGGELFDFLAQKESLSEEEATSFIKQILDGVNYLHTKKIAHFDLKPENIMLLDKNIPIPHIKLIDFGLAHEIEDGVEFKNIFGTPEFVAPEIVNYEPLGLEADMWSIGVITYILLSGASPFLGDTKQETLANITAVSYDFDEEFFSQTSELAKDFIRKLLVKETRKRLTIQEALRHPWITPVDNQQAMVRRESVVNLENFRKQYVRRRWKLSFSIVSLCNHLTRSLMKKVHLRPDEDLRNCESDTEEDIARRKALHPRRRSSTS
Chain of RSK2(Kin.Dom.2-C-terminal) (P51812 422-679 limits assumed): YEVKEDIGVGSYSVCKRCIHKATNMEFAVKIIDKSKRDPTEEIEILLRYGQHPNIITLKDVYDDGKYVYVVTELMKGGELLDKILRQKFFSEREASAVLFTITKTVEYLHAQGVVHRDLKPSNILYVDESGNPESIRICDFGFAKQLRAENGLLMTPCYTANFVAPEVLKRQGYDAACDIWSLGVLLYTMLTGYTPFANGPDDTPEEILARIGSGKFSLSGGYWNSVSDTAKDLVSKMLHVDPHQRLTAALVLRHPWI
Chain of AKT2 (P31751 whole entry): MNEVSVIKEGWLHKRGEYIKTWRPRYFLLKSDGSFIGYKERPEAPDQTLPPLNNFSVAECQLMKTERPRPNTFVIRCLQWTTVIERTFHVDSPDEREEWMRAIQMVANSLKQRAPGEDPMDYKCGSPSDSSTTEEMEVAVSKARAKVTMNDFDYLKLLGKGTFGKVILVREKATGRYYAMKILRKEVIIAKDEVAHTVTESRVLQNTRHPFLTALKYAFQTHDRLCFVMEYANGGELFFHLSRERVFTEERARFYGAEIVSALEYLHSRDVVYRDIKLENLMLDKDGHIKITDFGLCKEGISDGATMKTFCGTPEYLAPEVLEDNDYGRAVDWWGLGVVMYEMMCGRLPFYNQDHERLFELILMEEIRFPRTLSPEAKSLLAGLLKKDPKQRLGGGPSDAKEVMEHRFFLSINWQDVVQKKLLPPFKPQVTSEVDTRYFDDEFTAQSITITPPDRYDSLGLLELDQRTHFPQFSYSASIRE
Chain of RIPK5 (Q6XUX3 whole entry): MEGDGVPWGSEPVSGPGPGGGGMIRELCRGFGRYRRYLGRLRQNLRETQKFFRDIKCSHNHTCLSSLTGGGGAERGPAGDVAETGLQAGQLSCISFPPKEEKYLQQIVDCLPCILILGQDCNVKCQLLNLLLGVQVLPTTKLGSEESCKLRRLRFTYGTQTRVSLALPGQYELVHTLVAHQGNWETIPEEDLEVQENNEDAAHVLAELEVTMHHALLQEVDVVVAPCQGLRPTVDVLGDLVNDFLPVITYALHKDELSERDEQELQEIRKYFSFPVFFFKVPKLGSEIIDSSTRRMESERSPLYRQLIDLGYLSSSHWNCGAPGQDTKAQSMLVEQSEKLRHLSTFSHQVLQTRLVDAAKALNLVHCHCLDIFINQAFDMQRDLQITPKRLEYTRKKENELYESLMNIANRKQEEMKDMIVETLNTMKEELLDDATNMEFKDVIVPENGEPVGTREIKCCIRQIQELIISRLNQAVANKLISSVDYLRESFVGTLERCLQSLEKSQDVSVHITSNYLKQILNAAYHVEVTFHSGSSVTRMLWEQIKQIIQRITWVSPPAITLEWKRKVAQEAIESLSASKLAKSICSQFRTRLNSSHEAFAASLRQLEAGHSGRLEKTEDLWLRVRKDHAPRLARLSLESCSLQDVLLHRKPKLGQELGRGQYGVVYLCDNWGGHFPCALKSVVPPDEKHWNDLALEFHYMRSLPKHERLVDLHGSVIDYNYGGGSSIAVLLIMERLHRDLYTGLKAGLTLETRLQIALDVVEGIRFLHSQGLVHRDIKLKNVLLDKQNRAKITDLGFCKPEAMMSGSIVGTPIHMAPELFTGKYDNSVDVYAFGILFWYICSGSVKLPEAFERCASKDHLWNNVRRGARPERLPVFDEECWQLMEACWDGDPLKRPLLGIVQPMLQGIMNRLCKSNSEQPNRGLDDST
Chain of BMPR1A (P36894 24-532): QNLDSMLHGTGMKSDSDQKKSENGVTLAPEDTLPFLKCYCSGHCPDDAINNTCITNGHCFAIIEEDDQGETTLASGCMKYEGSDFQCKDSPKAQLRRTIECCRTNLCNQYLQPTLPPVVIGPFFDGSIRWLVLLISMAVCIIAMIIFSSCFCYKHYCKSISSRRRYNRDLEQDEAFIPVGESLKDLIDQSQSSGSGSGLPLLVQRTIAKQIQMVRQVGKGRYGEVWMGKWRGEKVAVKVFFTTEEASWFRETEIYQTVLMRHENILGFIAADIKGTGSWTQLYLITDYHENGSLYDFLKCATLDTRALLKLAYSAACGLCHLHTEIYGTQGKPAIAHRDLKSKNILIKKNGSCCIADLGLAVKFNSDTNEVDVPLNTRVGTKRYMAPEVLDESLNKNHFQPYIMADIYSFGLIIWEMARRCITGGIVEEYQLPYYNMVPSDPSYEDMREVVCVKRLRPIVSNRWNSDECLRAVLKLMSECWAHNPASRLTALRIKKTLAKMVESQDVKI
Chain of TNK2 (Q07912 whole entry): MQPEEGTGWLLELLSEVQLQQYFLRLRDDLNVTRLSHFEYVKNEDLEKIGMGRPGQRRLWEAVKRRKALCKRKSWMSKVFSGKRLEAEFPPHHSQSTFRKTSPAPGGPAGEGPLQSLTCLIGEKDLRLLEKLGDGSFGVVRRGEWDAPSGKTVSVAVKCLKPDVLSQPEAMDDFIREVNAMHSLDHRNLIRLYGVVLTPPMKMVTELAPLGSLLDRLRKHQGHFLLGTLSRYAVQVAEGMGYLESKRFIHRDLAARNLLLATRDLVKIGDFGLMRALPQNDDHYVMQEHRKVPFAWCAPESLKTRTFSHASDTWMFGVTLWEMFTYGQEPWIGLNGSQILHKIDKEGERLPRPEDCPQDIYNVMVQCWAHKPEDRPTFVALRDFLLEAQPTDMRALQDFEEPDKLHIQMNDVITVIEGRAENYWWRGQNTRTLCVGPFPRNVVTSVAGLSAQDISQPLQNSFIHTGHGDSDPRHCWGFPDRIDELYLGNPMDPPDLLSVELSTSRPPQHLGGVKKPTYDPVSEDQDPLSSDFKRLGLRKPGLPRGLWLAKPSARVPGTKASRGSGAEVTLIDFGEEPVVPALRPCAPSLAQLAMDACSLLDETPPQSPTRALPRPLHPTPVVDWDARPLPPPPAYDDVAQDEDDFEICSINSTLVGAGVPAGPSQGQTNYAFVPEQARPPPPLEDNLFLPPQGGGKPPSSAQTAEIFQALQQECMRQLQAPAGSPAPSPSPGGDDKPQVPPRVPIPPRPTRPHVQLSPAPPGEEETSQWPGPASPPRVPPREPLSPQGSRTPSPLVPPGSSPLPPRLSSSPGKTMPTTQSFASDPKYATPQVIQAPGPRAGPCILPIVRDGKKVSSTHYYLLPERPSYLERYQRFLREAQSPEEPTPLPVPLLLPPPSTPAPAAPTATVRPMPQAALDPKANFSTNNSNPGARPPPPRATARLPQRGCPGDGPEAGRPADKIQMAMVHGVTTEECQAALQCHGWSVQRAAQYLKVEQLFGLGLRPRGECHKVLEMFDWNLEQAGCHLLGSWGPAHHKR
Chain of EPHA7 (Q15375 28-998): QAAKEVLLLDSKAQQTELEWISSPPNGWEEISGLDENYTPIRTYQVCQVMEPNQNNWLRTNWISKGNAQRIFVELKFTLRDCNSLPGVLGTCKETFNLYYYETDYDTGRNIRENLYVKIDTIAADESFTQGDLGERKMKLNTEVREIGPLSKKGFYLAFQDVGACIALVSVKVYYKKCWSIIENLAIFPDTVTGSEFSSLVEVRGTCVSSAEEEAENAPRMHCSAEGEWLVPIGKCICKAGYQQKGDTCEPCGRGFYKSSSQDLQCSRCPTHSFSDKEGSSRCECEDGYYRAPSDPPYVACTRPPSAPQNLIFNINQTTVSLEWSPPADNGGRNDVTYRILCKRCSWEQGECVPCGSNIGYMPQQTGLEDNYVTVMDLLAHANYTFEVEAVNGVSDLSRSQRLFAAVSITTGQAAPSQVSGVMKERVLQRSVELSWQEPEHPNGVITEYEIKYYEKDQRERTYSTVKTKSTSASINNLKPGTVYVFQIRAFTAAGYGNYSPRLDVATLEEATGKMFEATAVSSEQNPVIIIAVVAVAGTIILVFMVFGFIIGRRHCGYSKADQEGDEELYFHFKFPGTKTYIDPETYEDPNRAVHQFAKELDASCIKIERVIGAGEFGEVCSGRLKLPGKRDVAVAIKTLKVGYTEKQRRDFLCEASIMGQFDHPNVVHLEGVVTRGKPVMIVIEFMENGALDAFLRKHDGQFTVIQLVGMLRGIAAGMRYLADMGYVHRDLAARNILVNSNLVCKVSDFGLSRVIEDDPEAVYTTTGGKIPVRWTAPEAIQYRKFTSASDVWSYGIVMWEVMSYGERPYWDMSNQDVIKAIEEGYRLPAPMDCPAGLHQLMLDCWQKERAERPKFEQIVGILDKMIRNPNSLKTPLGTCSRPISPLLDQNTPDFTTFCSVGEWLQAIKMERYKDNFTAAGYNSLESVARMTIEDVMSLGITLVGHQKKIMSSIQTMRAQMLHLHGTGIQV
Chain of p38-delta (O15264 whole entry): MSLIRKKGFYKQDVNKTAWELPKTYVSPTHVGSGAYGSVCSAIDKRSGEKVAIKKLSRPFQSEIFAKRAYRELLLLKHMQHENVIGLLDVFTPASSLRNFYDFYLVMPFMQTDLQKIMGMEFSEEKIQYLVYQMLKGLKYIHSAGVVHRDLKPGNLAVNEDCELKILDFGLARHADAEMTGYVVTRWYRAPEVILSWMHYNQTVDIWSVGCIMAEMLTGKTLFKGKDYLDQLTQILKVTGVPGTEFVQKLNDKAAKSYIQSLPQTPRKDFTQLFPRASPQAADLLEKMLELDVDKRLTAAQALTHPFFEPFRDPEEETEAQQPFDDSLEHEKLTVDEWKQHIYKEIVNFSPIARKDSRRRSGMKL

Row | Structure (SMILES) | remaining binding at 1 µM [1] [%] | remaining binding at 1 µM [2] [%] | remaining binding at 1 µM [3] [%] | remaining binding at 1 µM (ABL2) [%] | remaining binding at 1 µM (AKT2) [%] | remaining binding at 1 µM (BMPR1A) [%] | remaining binding at 1 µM (CAMK1D) [%] | remaining binding at 1 µM (CAMK1G) [%] | remaining binding at 1 µM (CDK9) [%] | remaining binding at 1 µM (CLK2) [%] | remaining binding at 1 µM (CSNK1E) [%] | remaining binding at 1 µM (DAPK2) [%] | remaining binding at 1 µM (DCAMKL2) [%] | remaining binding at 1 µM (EIF2AK1) [%] | remaining binding at 1 µM (EPHA7) [%] | remaining binding at 1 µM (FGFR2) [%] | remaining binding at 1 µM (FGFR3(G697C)) [%] | remaining binding at 1 µM (FGFR4) [%] | remaining binding at 1 µM (FRK) [%] | remaining binding at 1 µM [4] [%] | other results
1 | CCN1CCN(Cc2ccc(Nc3nc4ccc(Oc5ccnc(NC(C)=O)c5)cc4n3C)cc2C(F)(F)F)CC1 [Compound I-2] | 37 | 45 | 36 | 32 | 100 | 100 | 85 | 100 | 100 | 64 | 90 | 79 | 89 | 75 | 93 | 100 | 98 | 100 | 45 | 84 | remaining binding at 1 µM (KIT(V559D)): 0%; remaining binding at 1 µM (LZK): 100%; remaining binding at 1 µM (MELK): 83%; remaining binding at 1 µM (NIK): 100%; remaining binding at 1 µM (PIK3CA(E545A)): 100%; remaining binding at 1 µM (PIK3CA(I800L)): 75%; remaining binding at 1 µM (PIP5K1C): 81%; remaining binding at 1 µM (PKAC-alpha): 65%; remaining binding at 1 µM (RIPK5): 69%; remaining binding at 1 µM [5]: 93%; remaining binding at 1 µM [6]: 98%; remaining binding at 1 µM (SGK): 85%; remaining binding at 1 µM (SRPK1): 50%; remaining binding at 1 µM (STK35): 100%; remaining binding at 1 µM (TNK2): 94%; remaining binding at 1 µM (TSSK1B): 100%; remaining binding at 1 µM [7]: 23%; remaining binding at 1 µM (ULK2): 91%; remaining binding at 1 µM (p38-delta): 77%
2 | CCN1CCN(Cc2ccc(Nc3nc4ccc(Oc5ccnc(NC(C)=O)c5)c(C)c4n3C)cc2C(F)(F)F)CC1 [Compound I-6, N-(4-(2-(4-((4-ethylpiperazin-1-yl)methyl)-3-(trifluoromethyl)phenylamino)-1,7-dimethyl-1H-benzo[d]imidazol-6-yloxy)pyridin-2-yl)acetamide] | 7.4 | 30 | 24 | 5.3 | 100 | 98 | 100 | 99 | 96 | 91 | 66 | 99 | 100 | 29 | 99 | 82 | 66 | 100 | 11 | 72 | remaining binding at 1 µM (KIT(V559D)): 0.15%; remaining binding at 1 µM (LZK): 75%; remaining binding at 1 µM (MELK): 93%; remaining binding at 1 µM (NIK): 100%; remaining binding at 1 µM (PIK3CA(E545A)): 100%; remaining binding at 1 µM (PIK3CA(I800L)): 98%; remaining binding at 1 µM (PIP5K1C): 85%; remaining binding at 1 µM (PKAC-alpha): 57%; remaining binding at 1 µM (RIPK5): 61%; remaining binding at 1 µM [5]: 100%; remaining binding at 1 µM [6]: 99%; remaining binding at 1 µM (SGK): 96%; remaining binding at 1 µM (SRPK1): 83%; remaining binding at 1 µM (STK35): 100%; remaining binding at 1 µM (TNK2): 100%; remaining binding at 1 µM (TSSK1B): 100%; remaining binding at 1 µM [7]: 36%; remaining binding at 1 µM (ULK2): 100%; remaining binding at 1 µM (p38-delta): 73%
